Experiments:
[1] = AUC (0 to t) in crab-eating monkey at 6 mg/kg, ig by UPLC-MS/MS analysis; format: ADME, organism-based, Macaca fascicularis; set-up: dose 6 mg/kg, route ig; details: cynomolgus monkey, in vivo, po
[2] = Cmax in Sprague-Dawley rat at 10 mg/kg, ig by UPLC-MS/MS analysis; format: ADME, organism-based; set-up: dose 10 mg/kg, route ig; details: in vivo, po
Cytochrome P450 1A2 = target: T1, Cytochrome P450 1A2 (Homo sapiens, UniProt P05177); assay: Inhibition of CYP1A2 in human liver microsomes at 0.01 to 30 uM […] in presence of NADPH by UPLC-MS/MS analysis; format: ADME, Microsome
T1 sequence (P05177 whole entry): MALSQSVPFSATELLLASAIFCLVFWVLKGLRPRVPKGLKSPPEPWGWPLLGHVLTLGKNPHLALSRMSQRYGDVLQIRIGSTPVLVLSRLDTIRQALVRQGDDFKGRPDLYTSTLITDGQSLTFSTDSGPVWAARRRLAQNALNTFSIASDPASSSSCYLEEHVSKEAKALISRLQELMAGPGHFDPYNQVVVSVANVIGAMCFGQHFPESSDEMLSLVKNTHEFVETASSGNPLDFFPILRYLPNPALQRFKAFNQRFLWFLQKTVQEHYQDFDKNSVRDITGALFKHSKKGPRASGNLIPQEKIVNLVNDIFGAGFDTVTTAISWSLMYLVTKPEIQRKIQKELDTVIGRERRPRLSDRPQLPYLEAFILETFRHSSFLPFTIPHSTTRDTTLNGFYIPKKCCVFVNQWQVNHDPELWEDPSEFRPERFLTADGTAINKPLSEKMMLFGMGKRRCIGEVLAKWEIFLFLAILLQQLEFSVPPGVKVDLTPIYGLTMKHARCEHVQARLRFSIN

[3] = AUC (0 to infinity) in crab-eating monkey at 3 mg/kg, iv measured upto 24 hrs by UPLC-MS/MS analysis; format: ADME, organism-based, Macaca fascicularis; set-up: dose 3 mg/kg, time < 24 hrs, route iv; details: cynomolgus monkey, in vivo
[4] = Metabolic stability in human […] liver microsomes assessed as half life at 1 uM measured after 60 mins by LC-MS/MS analysis; format: ADME, Microsome
[5] = AUC (0 to infinity) in overnight fasted ICR mouse at 10 mg/kg, po measured upto 24 hrs by UPLC-MS/MS analysis; format: ADME, organism-based; set-up: dose 10 mg/kg, time < 24 hrs, route po; details: in vivo
[6] = Apparent volume of distribution at steady state in crab-eating monkey at 3 mg/kg, iv measured upto 24 hrs by UPLC-MS/MS analysis; format: ADME, organism-based, Macaca fascicularis; details: cynomolgus monkey, in vivo, read-out: Vdss(app)
[7] = target: Protein kinase C theta type (Homo sapiens) (UniProt Q04759); assay: Inhibition of PKCtheta (unknown origin) at 1 uM in presence of ATP at Km concentration by mobility shift assay relative to control
LNCaP [8] = assay: Induction of apoptosis in human LNCaP cells assessed as early apoptotic cells at 1.25 uM incubated for 72 hrs by annexin V/PI double staining based flow cytometry method (reference value: […]); format: functional
[9] = AUC (0 to t) in crab-eating monkey at 3 mg/kg, iv measured upto 24 hrs by UPLC-MS/MS analysis; format: ADME, organism-based, Macaca fascicularis; set-up: dose 3 mg/kg, time < 24 hrs, route iv; details: cynomolgus monkey, in vivo
[10] = Tmax in crab-eating monkey at 6 mg/kg, ig by UPLC-MS/MS analysis; format: ADME, organism-based, Macaca fascicularis; details: cynomolgus monkey, in vivo, po
[11] = Bioavailability in crab-eating monkey at 6 mg/kg, ig by UPLC-MS/MS analysis; format: ADME, organism-based, Macaca fascicularis; details: cynomolgus monkey, in vivo, po
LNCaP [12] = assay: Induction of apoptosis in human LNCaP cells assessed as viable cells at […] incubated for 72 hrs by annexin V/PI double staining based flow cytometry method (reference value: 93.63 %); format: functional; details: read-out: Activity
LNCaP [13] = assay: In vivo antitumor activity against human LNCap cells xenografted in NCG mouse assessed as tumor growth inhibition at 50 mg/kg administered once daily for 18 to 21 days relative to control; format: functional; details: time 18-21 day, read-out: TGI
[14] = Metabolic stability in Crab eating monkey liver microsomes assessed hepatic clearance at 1 uM measured after 60 mins by LC-MS/MS analysis; format: ADME, Macaca fascicularis, Microsome; details: cynomolgus monkey, 1 h
[15] = Metabolic stability in human liver microsomes assessed hepatic clearance at 1 uM measured after 60 mins by LC-MS/MS analysis; format: ADME, Microsome; details: 1 h
[16] = Half life in crab-eating monkey at 3 mg/kg, iv measured upto 24 hrs by UPLC-MS/MS analysis; format: ADME, organism-based, Macaca fascicularis; details: cynomolgus monkey, in vivo
Cytochrome P450 2C9 = Cytochrome P450 2C9 (Homo sapiens, UniProt P11712); assay: Inhibition of CYP2C9 in human liver microsomes at 0.01 to 30 uM using diclofenac as substrate in presence of NADPH by UPLC-MS/MS analysis; format: ADME, Microsome
LNCaP [17] = assay: Induction of apoptosis in human LNCaP cells assessed as late apoptotic cells at 1.25 uM incubated for 72 hrs by annexin V/PI double staining based flow cytometry method (reference value: 2.75 %); format: functional
[18] = Metabolic stability in Beagle dog liver microsomes assessed as parent compound remaining at 1 uM measured after 60 mins by UPLC-MS/MS analysis; format: ADME, Canis lupus familiaris, Microsome; details: read-out: Stability
[19] = AUC (0 to infinity) in Sprague-Dawley rat at 10 mg/kg, ig by UPLC-MS/MS analysis; format: ADME, organism-based; set-up: time infinity, dose 10 mg/kg, route ig; details: in vivo, po
[20] = Cmax in NCG mouse xenografted with human LNCaP cells at 12.5 mg/kg administered once daily for 18 to 21 days and measured upto 10 hrs post last dose by LC-MS/MS analysis; format: ADME, organism-based; details: in vivo
Cytochrome P450 3A4 = Cytochrome P450 3A4 (Homo sapiens, UniProt P08684); assay: Inhibition of CYP3A4 in human liver microsomes at 0.01 to 30 uM […] in presence of NADPH by UPLC-MS/MS analysis; format: ADME, Microsome
[21] = Metabolic stability in Crab eating monkey liver microsomes assessed as half life at 1 uM measured after 60 mins by LC-MS/MS analysis; format: ADME, Macaca fascicularis, Microsome; details: cynomolgus monkey
[22] = AUC (0 to t) in NCG mouse xenografted with human LNCaP cells at 25 mg/kg administered daily once for 18 to 21 days and measured upto 10 hrs post last dose by LC-MS/MS analysis; format: ADME, organism-based; set-up: time 18-21 day, dose 25 mg/kg; details: in vivo
Cytochrome P450 2C19 = Cytochrome P450 2C19 (Homo sapiens, UniProt P33261); assay: Inhibition of CYP2C19 in human liver microsomes at 0.01 to 30 uM using mephenytoin as substrate in presence of NADPH by UPLC-MS/MS analysis; format: ADME, Microsome
[23] = Half life in Sprague-Dawley rat at 10 mg/kg, ig by UPLC-MS/MS analysis; format: ADME, organism-based; details: in vivo, po
[24] = Cmax in crab-eating monkey at 6 mg/kg, ig by UPLC-MS/MS analysis; format: ADME, organism-based, Macaca fascicularis; set-up: dose 6 mg/kg, route ig; details: cynomolgus monkey, in vivo, po
[25] = Metabolic stability in Beagle dog liver microsomes assessed hepatic clearance at 1 uM measured after 60 mins by LC-MS/MS analysis; format: ADME, Canis lupus familiaris, Microsome; details: 1 h
LNCaP [26] = assay: Antitumor activity against human LNCaP cells xenografted in NCG mouse assessed as tumor growth inhibition at 12.5 mg/kg administered once daily for 18 to 21 days relative to control; format: functional; details: time 18-21 day, read-out: TGI
[27] = Oral bioavailability in overnight fasted ICR mouse at 10 mg/kg measured upto 24 hrs by UPLC-MS/MS analysis; format: ADME, organism-based; details: in vivo
[28] = Metabolic stability in human liver microsomes assessed as parent compound remaining at 1 uM measured after 60 mins by UPLC-MS/MS analysis; format: ADME, Microsome; details: read-out: Stability

Chain of Cytochrome P450 3A4 (P08684 whole entry): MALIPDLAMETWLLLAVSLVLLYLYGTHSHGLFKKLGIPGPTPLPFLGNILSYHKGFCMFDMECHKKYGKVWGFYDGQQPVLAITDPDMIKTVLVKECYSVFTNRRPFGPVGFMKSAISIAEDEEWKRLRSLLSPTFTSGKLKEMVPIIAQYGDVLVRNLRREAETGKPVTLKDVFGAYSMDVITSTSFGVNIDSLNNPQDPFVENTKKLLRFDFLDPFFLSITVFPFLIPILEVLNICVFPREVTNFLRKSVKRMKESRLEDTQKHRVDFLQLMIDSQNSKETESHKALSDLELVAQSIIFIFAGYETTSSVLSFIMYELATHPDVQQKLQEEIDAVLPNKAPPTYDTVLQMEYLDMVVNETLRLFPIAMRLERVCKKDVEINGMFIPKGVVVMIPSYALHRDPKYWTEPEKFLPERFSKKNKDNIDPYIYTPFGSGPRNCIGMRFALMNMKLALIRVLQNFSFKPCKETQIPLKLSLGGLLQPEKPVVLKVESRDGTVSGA
Chain of Cytochrome P450 2C9 (P11712 whole entry): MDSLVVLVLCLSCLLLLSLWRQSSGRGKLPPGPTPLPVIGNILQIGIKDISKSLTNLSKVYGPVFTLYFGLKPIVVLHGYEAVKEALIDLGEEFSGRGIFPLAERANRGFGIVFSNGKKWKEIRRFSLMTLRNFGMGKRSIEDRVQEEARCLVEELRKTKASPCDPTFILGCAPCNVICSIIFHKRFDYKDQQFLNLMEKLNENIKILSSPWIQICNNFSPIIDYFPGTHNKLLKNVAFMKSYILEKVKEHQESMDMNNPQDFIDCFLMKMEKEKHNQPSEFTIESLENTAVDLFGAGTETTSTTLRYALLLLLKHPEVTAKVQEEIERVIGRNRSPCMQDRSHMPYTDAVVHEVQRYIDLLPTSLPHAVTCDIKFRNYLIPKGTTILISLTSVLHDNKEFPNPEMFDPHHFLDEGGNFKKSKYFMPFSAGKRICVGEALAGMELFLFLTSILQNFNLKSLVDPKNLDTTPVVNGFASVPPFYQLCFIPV
Chain of Cytochrome P450 2C19 (P33261 whole entry): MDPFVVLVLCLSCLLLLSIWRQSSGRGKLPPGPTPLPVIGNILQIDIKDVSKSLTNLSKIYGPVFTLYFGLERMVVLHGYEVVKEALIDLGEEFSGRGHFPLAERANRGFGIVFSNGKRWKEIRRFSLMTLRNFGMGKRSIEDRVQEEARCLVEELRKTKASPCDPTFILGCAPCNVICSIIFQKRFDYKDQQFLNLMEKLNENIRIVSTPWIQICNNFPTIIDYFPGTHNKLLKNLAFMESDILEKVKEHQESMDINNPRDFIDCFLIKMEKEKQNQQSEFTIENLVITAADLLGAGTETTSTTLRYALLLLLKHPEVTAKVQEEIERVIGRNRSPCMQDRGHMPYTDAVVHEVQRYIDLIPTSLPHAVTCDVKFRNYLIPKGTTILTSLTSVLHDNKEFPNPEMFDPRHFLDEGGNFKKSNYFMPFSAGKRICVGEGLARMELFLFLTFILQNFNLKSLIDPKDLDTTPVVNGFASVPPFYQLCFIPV
Chain of Protein kinase C theta type (Homo sapiens) (Q04759 whole entry, looked up): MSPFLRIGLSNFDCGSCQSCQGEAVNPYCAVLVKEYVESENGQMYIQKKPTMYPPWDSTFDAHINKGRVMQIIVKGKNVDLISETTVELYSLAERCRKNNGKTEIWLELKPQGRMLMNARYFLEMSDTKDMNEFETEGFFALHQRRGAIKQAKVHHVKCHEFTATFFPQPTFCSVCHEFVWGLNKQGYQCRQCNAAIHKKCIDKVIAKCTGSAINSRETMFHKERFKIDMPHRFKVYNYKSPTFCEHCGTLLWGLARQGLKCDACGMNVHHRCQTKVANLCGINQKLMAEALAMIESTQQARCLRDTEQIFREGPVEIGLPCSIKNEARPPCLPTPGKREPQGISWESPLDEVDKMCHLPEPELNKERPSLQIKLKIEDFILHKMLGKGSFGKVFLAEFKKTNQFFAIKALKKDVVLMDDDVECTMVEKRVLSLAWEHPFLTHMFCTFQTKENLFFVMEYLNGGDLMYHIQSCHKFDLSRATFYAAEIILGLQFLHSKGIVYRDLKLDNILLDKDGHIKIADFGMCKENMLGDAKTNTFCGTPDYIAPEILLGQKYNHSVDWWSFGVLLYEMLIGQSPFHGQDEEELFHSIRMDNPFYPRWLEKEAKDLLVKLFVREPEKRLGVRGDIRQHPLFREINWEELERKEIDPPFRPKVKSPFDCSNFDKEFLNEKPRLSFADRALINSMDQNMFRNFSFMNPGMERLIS

## CC(C)NC[C@@H](C(=O)N1CCN(c2ncnc3c2[C@H](C)CC(=O)N3)[C@H]2C[C@H]21)c1ccc(Cl)cc1
[1]
  AUC(0-t): 1480 ng·h/mL
[2]
  Cmax: 705 ng/mL
Cytochrome P450 1A2
  IC50: > 50 µM
[3]
  AUC(0-inf): 1880 ng·h/mL
[4]
  half-life at 1 µM: 1.52 h
[5]
  AUC(0-inf): 2170 ng·h/mL
[6]
  Vd: 8.36 L/kg
[7]
  inhibition: 90%
LNCaP [8]
  Activity: 12.6%
[9]
  AUC(0-t) at 24 h: 1780 ng·h/mL
[10]
  Tmax: 4 h
[11]
  bioavailability: 41.2%
LNCaP [12]; dose 0.62 µM
  viability at […]: 79.7%
LNCaP [12]; dose 2.5 µM
  viability at […]: 55%
LNCaP [13]
  inhibition in vivo at 50 mg/kg: 95.5%
[14]
  CLH: 0.0252 mL/min/kg
[15]
  CLH: 8.96 mL/min/kg
[16]
  half-life: 7.73 h
Cytochrome P450 2C9
  IC50: > 50 µM
LNCaP [17]
  Activity: 12.65%
[18]
  remaining at 1 h, 1 µM: 53.6%
[19]
  AUC(0-inf): 3890 ng·h/mL
[20]
  Cmax: 963 ng/mL
Cytochrome P450 3A4
  IC50: 15.2 µM
[21]
  half-life at 1 µM: 0.472 h
[22]
  AUC(0-t): 13500 ng·h/mL
Cytochrome P450 2C19
  IC50: > 50 µM
[23]
  half-life: 3.28 h
[24]
  Cmax: 237 ng/mL
[25]
  CLH: 0.0169 mL/min/kg
LNCaP [26]
  inhibition in vivo at 12.5 mg/kg: 84.1%
[27]
  bioavailability: 29.7%
[28]
  remaining at 1 h, 1 µM: 62.9%
